Assay results: publication PMC11922053 (Science Advances, 2025)
Where a SMILES comes first, the peptide text is derived from it. Bridges are numbered along the chain shown (N, C = ends). [ ]: non-standard residue; d: D form. The star is where a group is joined. Biotin = O=C1N[C@H]2[C@H](CS[C@H]2CCCCC(=O)*)N1; 2Nal = N[C@@H](Cc1ccc2ccccc2c1)C(=O)O; Gly(cPent) = N[C@H](C(=O)O)C1CCCC1; Hyp = O=C(O)[C@@H]1C[C@@H](O)CN1; Pen = CC(C)(S)[C@H](N)C(=O)O; Api = NC1(C(=O)O)CCNCC1; Ahx = NCCCCCC(=O)O

Tested on: anti-hemagglutinin antibody clone 12ca5
Assay: Biolayer interferometry
Type: binding, mouse
Settings: off-target control

CC1(C)SSC[C@H](NC(=O)[C@H](CO)NC(=O)[C@@H](NC(=O)[C@H](CO)NC(=O)C2(NC(=O)[C@H](Cc3ccc4ccccc4c3)NC(=O)[C@H](CO)NC(=O)CCCCCNC(=O)[C@@H](N)CCCCNC(=O)CCCC[C@@H]3SC[C@@H]4NC(=O)N[C@@H]43)CCNCC2)C2CCCC2)C(=O)N2C[C@H](O)C[C@H]2C(=O)N[C@@H](CO)C(=O)N[C@@H](Cc2ccc(O)cc2)C(=O)N[C@@H](CO)C(=O)N[C@@H](CO)C(=O)N2C[C@H](O)C[C@H]2C(=O)N[C@@H]1C(=O)N[C@@H](CO)C(N)=O [NCBP-4 Ser Sub] (H-K(Biotin)[Ahx]S[2Nal][Api]S[Gly(cPent)]SC[Hyp]SYSS[Hyp][Pen]S-NH2; disulfide 9-16; N-terminus assumed)
nonspecific binding to 12ca5 by BLI (in words): no affinity
